This note sets out measurements from patent publication US8106111B2, “Antimicrobial effect of cycloaliphatic diol antimicrobial agents in coating compositions” (Eastman Chemical Company, priority 2009, dated 2012).

Data set [1] is described as follows: Solubility in aqueous growth media. In kind it is physicochemical. The method, then:
Stock solutions were prepared for each isomer in the corresponding growth media at a concentration of 5% w/v (1,4-CHDM) or 2.25% w/v (1,1-CHDM). Serial dilutions were prepared with a dilution ratio of 1:1.3333 such that one log range was covered with nine dilutions.
Final results have been summarized below in Table 9.

The subject of data set [2] is challenge organisms (E. coli, Aeromonas sp., SRB isolate, B. subtilis, P. vulgaris, A. niger, C. albicans). Kind of data set: Paint challenge test, summary over the challenge organisms. Type of data set: cell-based. Particulars: additive alone at 0.5-5%, all seven challenge organisms. Here is the method:
A test of the antimicrobial efficacy of 1,4-CHDM was performed in a paint. Test procedures were generally performed according to those of ASTM D2574-06: Standard Test Method for Resistance of Emulsion Paints in the Container to Attack by Microorganisms.
The paint used for testing was a commercial water-based, interior latex flat wall paint purchased from Wal-Mart. The trade name for the paint was Quik Hide. The color was Off White 26905. A five gallon (18.9 L) container was purchased. The VOC (volatile organic compound) content was listed as <100 g/L (0.8 lbs/gal).
Aliquots of uninoculated paint were distributed in sterile plastic tubes. The volume of paint added was adjusted such that the volume of additives plus the volume of paint would equal 25 mL. […] The percentages shown in Table 2 are weight percentages.
The concentration of the additives in the paint was adjusted to allow for a final volume of 28 mL per tube after addition of inoculum. All tubes were mixed for 10 minutes on a mechanical shaker set to 75 shakes per minute, and then left stationary at ambient temperature for a minimum of 48 hours.
The bacteria (first five in list), yeast (C. albicans) and fungi (A. niger) in Table 3 were used as challenge organisms for testing the antimicrobial efficacy of the additives contained in the test paint samples. Each organism was isolated from previous naturally contaminated samples of paint, latex, or adhesive. The concentration of each organism (colony-forming unit/gram (cfu/g)) in the test paint samples added as inoculum is also given in Table 3.
(§1) Bacterial cultures were grown at 35° C.±2° C. for a minimum of 96 hours in liquid media. SRB was grown in a thioglycolate broth. All other bacteria and C. albicans were grown in a Trypticase Soy broth with 1% dextrose. C. albicans cultures were grown at 22° C.±2° C. for a minimum of 96 hours. A. niger was grown on the Sabouraud Dextrose Agar (SDA) and in the Trypticase Soy broth with 1% dextrose at 22° C. for 7 to 14 days or until full sporulation (in the case of the agar culture) was achieved. Spores from the plate culture of A. niger were dislodged by rubbing the growth gently with a sterile inoculating loop or removing it with a sterile glass impinger. The spores were added into the broth culture, and then the mixture was filtered through sterile nonabsorbent cotton and adjusted to a spore level of 1.0×10^8 using a hemocytometer.
Challenge organisms were initially acclimated to the paint without additives by adding 10% by volume of individual broth culture to the paint to yield final concentrations of 10^6-10^7 cfu/mL for each bacterial culture to produce paint stock cultures. The A. niger and C. albicans cultures (or suspension) were first poured through nonabsorbent sterile gauze to remove aggregates, then centrifuged. […]

Data set [3] relates to challenge organisms (SRB isolate, B. subtilis, A. niger, C. albicans, P. aeruginosa/C. albicans). Kind of data set: Latex dispersion challenge test, summary over the challenge organisms. Type of data set: cell-based. Particulars: acrylic latex dispersion, additive alone; challenge organisms other than SRB. The method, then:
A test of the antimicrobial efficacy of 1,4-CHDM was performed in a latex dispersion. Test procedures were generally conducted according to those of ASTM D2574-06: Standard Test Method for Resistance of Emulsion Latexes in the Container to Attack by Microorganisms.
An antimicrobial agent-free, acrylic latex dispersion with pH of 7.2, viscosity of 200 cps, and solids content of 49.8% was used as the substrate for microbial challenge testing.
Aliquots of the latex dispersion were distributed in sterile plastic tubes. The volume of latex added was adjusted such that the volume of additives plus the volume of latex would equal 25 mL to produce latex test samples.
The concentration of the additives was adjusted to allow for a final volume of 28 mL per tube after addition of the latex stock cultures discussed in Example 1. All tubes were mixed for 10 minutes on a mechanical shaker set to 75 shakes per minute, and then left stationary at ambient temperature for a minimum of 48 hours.
The bacteria (sulfate-reducing bacteria isolate, Bacillus subtilis, and Pseudomonas aeruginosa), yeast (Candida albicans), and fungi (Aspergillus niger) in Table 6 were used as challenge organisms for testing the antimicrobial efficacy of the test latex samples. Each organism was isolated from previous naturally contaminated samples of paint, latex, or adhesive.
as §1, with “Agar” for “Agar (SDA)”
Challenge organisms were initially acclimated to the latex without antimicrobial additives by adding 10% by volume of individual broth culture to latex to yield final concentrations of 10^6-10^7 cfu/mL for each bacterial culture to produce latex stock cultures. The A. niger and C. albicans cultures (or suspension) were first poured through nonabsorbent sterile gauze to remove aggregates then centrifuged. The solids were re-suspended to the desired concentration in latex by estimating the concentration using a hemocytometer. The P. aeruginosa and C. albicans isolates were originally found as a mixed culture in a contaminated product. A mixed latex stock culture containing P. aeruginosa and C. albicans was prepared by adding a portion of the contaminated product to the latex without antimicrobial additives. The latex stock culture samples were incubated at 35° C.±2° C. for bacteria and at 22° C.±2° C. for A. niger and C. albicans. To determine challenge organism concentration, samples of the latex stock cultures were dilution-plated, or for SRB, evaluated using the BACTI-BOTTLE method, as described below.
To the latex test samples, 3 mL of each latex stock culture (diluted as necessary) was added to produce a theoretical 1.0×10^5 to 1.0×10^6 cfu/mL total concentration to yield inoculated latex samples. […]

Consider `OCC1(CO)CCCCC1` [1,1-CHDM, 1,1-cyclohexanedimethanol], for which the solubility in data set [1] is given as 2.25 % (w/v).
Regarding `OCC1CCCC(CO)C1` (stereo not shown) [1,3-CHDM], the “killing of challenge organisms in paint” value in data set [2] is “little benefit and no observable dose response”.
For `OCC1CCC(CO)CC1` (stereo not shown) [1,4-CHDM, 1,4-cyclohexanedimethanol], the “killing of challenge organisms in paint” value in data set [2] is “significant or complete killing of each challenge organism”. The “efficacy against challenge organisms in latex” value (shortened to “efficacy”) in data set [3] was “significant or complete killing of each challenge organism except SRB”.
For `O=c1[nH]sc2ccccc12` [BIT, benzisothiazolinone], the “efficacy” value in data set [3] was “highly efficacious”.
`CCCCNC(=O)OCC#CI` [IPBC, 3-iodo-2-propanyl-n-butylcarbamate]: the “efficacy” value in data set [3] is on record as “not found to be efficacious”.
Same read-out and setting: for `Cn1sccc1=O` [MIT, methylisothiazolinone] the value was “highly efficacious”.
With `CC(O)CO` (stereo not shown) [PG, propylene glycol], in data set [2], the “killing of challenge organisms in paint” value is “little benefit and no observable dose response”. In data set [3], the “efficacy” value was “some ability to inhibit and kill the challenge organisms”.
As for `CC1(C)C(O)C(C)(C)C1O` (stereo not shown) [TMCD, 2,2,4,4-tetramethyl-1,3-cyclobutanediol], the “killing of challenge organisms in paint” value in data set [2] was “killed all challenge organisms at the highest level tested”.
